Assays:
Assay type in all cases: biochemical
[1] = target: T1, PLK1 (Homo sapiens, UniProt P53350); test: PLK1 Inhibition Assay (Z-Lyte); details: for inhibition at 10 µM: 10 μM compound, read-out: PLK1 relative inhibition percentage at a dose of 10 μM; for IC50: 25 μM ATP, 8 nM PLK1, read-out: PLK1 IC50 Ranges
T1 construct: purchased Invitrogen PV3501
Procedure: PLK1 inhibition was determined using the Z-Lyte assay kit from Invitrogen (cat #PV3802). […] The % inhibition values were determined according to the manufacturer's directions and IC50 values were obtained using a non-linear 4 point logistic curve fit (XLfit4, IDBS)

[2] = target: T2, human PLK4 (Homo sapiens, UniProt O00444); test: PLK4 Inhibition Assay (indirect ELISA); details: 15 μM ATP, 4 nM GST-PLK4; read-out: PLK4 IC50 Ranges
T2 construct: amino terminal GST fusion of residues 1-391 of human PLK4; made in house; host or cells: E. coli
T2 sequence (O00444 1-391): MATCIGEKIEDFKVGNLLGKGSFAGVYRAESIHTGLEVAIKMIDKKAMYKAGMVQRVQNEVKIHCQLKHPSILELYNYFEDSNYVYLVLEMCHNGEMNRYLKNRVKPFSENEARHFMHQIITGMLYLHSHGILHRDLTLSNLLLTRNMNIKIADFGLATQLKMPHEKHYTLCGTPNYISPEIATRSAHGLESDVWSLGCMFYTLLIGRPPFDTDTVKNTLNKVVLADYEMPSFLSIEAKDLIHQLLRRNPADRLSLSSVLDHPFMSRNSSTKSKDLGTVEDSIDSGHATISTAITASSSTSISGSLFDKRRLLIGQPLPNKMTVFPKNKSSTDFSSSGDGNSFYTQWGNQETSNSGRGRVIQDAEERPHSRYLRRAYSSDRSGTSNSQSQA
Outline: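 Dephosphorylated (lambda phosphatase) GST-PLK4 activity read by indirect ELISA. Compounds were pre-incubated with enzyme for 15 minutes before ATP was added. IC50 came from a non-linear 4-point logistic fit.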

[3] = target: T3, Aurora A (Homo sapiens, UniProt O14965); test: Aurora A Inhibition Assay (Z-Lyte); details: for inhibition at 10 µM: 10 μM compound, read-out: Aurora A relative inhibition percentage at a dose of 10 μM; for IC50: 20 μM ATP, 12 nM Aurora A, read-out: Aurora A IC50 Ranges
T3 construct: purchased Invitrogen PV3612
T3 sequence (O14965 1-403): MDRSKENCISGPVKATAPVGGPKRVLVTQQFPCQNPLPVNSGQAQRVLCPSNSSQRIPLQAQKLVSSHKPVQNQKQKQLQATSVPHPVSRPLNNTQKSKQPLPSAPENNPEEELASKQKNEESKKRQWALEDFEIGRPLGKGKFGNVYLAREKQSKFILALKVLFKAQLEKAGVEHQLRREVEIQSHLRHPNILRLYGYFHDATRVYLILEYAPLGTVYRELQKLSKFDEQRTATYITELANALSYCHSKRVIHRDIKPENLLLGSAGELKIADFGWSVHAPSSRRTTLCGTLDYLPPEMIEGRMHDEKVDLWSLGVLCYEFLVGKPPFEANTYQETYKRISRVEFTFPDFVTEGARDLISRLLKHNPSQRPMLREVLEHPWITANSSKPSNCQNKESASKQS
Procedure: (§1) Aurora A inhibition was determined using the Z-Lyte assay kit from Invitrogen. The assay was performed using the recommended manufacturer's instructions with 20 μM ATP and 12 nM Aurora A (Invitrogen cat #PV3612). The % inhibition values were determined according to the manufacturer's directions and IC50 values were obtained using a non-linear 4 point logistic curve fit (XLfit4, IDBS)

[4] = target: T4, Aurora B (Homo sapiens, UniProt Q96GD4); test: Aurora B Inhibition Assay (Z-Lyte); details: 128 μM ATP, 28 nM Aurora B; read-out: Aurora B IC50 Ranges
T4 construct: purchased Invitrogen PV3970
Procedure: as §1, with “Aurora B” for “Aurora A”, “with 128” for “with 20”, “and 28” for “and 12”, “cat #PV3970).” for “cat #PV3612).”

[5] = target: Abl (Homo sapiens, UniProt P00519); test: Millipore kinase assay, radiolabelled phosphopeptide filter binding, IC50 estimate; design: purchased Millipore (assay service); details: estimated from inhibition at three compound concentrations; ATP at the Km
Procedure: (§2) Kinase assays at Millipore were performed using a radiolabelled phosphopeptide filter binding detection system, in duplicate, at each compound concentration. The ATP substrate concentration in the reactions was at the Km for each enzyme.
(§3) To allow for a more direct comparison of compound inhibition, an IC50 value was estimated from the inhibition determined at three compound concentrations. Several assumptions were made to allow this calculation using a 4 parameter non linear curve fit model, including full inhibition set at 100%, no inhibition set to 0%, and a curve fit parameter set at 1. The inflection point was reported as the estimated IC50.

[6] = target: TRKA (Homo sapiens, UniProt P04629); test: as above; design: purchased Millipore (assay service); details: estimated from inhibition at three compound concentrations; ATP at the Km
Procedure: as §2, §3

[7] = target: Lyn (Homo sapiens, UniProt P07948); test: as above; design: purchased Millipore (assay service); details: estimated from inhibition at three compound concentrations; ATP at the Km
Procedure: as §2, §3

[8] = target: Ret (Homo sapiens, UniProt P07949); test: as above; design: purchased Millipore (assay service); details: estimated from inhibition at three compound concentrations; ATP at the Km
Procedure: as §2, §3

[9] = target: T5, PLK2 (Homo sapiens, UniProt Q9NYY3); test: PLK2 Inhibition Assay (Z-Lyte); details: for inhibition at 10 µM: 10 μM compound, read-out: PLK2 relative inhibition percentage at a dose of 10 μM; for IC50: 60 μM ATP, 133 nM PLK2, read-out: PLK2 IC50 Ranges
T5 construct: purchased Invitrogen PV4204
Procedure: as §1, with “PLK2” for “Aurora A”, “Invitrogen (cat #PV3802).” for “Invitrogen.”, “60” for “20”, “133” for “12”, “#PV4204).” for “#PV3612).”

Chain of TRKA (P04629 33-796): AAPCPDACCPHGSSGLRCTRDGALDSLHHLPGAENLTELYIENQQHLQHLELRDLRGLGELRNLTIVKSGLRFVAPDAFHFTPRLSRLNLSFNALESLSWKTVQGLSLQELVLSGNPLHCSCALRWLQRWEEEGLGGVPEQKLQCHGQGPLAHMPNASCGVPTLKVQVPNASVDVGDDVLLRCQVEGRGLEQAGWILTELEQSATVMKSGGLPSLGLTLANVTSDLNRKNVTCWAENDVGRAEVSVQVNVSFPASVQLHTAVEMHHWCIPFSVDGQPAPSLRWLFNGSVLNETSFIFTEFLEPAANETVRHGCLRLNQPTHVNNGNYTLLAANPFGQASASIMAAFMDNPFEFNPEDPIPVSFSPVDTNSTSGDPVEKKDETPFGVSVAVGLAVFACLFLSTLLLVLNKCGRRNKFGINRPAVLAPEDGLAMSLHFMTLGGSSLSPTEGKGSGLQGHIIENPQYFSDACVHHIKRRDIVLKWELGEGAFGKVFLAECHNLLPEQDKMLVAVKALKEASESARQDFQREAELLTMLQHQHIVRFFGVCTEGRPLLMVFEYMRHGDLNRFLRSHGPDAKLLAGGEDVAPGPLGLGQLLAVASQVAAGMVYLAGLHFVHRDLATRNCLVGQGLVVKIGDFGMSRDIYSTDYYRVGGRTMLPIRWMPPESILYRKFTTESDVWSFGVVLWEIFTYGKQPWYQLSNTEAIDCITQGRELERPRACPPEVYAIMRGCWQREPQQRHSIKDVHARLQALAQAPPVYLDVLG
Chain of Ret (P07949 29-1114): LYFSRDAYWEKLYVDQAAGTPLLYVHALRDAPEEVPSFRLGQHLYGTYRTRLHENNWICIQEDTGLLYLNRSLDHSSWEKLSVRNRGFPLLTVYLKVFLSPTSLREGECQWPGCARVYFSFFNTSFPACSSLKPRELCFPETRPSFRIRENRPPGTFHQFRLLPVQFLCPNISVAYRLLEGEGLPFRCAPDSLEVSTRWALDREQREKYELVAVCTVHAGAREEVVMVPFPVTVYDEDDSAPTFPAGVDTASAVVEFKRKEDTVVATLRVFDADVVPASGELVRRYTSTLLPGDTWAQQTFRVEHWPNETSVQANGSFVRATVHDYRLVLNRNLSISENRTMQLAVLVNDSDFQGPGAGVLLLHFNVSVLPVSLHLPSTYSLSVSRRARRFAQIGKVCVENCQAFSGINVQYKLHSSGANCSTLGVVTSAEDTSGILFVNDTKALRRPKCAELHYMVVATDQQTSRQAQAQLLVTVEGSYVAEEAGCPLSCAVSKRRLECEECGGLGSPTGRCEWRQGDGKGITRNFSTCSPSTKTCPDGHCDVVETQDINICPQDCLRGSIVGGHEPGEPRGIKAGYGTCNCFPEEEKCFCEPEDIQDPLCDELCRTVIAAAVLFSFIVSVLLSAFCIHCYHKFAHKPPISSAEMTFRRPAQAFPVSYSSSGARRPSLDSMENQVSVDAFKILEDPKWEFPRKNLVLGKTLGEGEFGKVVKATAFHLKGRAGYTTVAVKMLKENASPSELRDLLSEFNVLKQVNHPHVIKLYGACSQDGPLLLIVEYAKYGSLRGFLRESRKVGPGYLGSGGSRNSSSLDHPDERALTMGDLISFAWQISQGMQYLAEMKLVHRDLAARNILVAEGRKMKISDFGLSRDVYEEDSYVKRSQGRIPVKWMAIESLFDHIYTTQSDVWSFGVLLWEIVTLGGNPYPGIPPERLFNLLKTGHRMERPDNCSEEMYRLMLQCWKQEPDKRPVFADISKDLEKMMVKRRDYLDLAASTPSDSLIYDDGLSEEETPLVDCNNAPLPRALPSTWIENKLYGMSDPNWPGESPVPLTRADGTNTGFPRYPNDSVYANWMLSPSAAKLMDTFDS
Chain of Abl (P00519 whole entry): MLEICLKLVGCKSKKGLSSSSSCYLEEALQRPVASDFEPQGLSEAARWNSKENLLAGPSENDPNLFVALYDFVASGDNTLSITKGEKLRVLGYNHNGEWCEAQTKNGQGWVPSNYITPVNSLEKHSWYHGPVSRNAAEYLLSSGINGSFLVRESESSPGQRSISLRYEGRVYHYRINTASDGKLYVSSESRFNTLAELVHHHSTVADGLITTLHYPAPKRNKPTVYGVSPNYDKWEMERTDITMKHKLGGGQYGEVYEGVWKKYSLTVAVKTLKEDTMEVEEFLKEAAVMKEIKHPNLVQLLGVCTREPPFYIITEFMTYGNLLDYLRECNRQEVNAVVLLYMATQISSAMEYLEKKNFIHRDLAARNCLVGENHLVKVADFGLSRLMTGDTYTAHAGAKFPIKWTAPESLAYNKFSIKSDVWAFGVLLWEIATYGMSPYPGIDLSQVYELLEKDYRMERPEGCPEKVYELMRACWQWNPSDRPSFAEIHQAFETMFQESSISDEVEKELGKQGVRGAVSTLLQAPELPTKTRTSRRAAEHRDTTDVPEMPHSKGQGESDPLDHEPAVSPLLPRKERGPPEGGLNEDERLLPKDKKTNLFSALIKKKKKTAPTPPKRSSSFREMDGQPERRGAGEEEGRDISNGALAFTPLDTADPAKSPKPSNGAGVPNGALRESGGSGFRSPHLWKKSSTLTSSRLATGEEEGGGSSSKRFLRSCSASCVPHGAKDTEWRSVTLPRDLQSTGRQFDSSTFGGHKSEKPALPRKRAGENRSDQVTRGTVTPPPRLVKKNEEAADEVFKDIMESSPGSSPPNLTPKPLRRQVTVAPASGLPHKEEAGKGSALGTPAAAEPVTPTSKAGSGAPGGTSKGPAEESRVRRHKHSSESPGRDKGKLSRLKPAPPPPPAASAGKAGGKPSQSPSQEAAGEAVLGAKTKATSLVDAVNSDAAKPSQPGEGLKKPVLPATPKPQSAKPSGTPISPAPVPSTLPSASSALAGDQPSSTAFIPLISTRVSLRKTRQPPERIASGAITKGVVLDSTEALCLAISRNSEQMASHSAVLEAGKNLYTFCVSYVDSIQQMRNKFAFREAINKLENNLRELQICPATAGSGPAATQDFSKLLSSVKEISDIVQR
T4 sequence (Q96GD4 whole entry): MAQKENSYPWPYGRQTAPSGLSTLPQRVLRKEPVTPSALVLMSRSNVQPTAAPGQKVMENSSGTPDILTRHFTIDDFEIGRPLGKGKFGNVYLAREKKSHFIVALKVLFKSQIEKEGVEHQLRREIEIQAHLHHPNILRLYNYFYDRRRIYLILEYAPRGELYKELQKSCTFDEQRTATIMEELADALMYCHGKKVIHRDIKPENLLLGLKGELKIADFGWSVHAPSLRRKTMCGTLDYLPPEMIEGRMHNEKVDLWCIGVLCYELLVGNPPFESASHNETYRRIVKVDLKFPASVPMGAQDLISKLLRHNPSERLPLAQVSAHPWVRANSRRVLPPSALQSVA
T5 sequence (Q9NYY3 whole entry): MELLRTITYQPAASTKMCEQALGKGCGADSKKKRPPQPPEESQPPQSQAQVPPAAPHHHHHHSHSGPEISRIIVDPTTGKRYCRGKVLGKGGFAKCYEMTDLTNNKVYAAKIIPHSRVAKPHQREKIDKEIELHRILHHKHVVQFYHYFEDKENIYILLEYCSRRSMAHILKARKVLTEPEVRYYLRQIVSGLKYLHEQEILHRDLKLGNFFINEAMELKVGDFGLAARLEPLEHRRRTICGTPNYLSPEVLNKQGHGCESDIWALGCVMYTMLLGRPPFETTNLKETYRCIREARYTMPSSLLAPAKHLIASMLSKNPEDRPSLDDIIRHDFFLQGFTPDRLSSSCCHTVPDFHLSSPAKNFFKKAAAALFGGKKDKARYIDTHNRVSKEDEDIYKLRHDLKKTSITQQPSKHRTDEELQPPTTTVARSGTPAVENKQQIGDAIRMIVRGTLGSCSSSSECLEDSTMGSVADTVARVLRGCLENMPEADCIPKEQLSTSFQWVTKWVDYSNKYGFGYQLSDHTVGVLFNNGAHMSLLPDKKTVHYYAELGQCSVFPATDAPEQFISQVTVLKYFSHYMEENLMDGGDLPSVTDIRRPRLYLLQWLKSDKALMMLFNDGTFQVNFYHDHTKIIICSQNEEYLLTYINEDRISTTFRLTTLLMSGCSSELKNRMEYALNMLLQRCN
Chain of Lyn (P07948 whole entry): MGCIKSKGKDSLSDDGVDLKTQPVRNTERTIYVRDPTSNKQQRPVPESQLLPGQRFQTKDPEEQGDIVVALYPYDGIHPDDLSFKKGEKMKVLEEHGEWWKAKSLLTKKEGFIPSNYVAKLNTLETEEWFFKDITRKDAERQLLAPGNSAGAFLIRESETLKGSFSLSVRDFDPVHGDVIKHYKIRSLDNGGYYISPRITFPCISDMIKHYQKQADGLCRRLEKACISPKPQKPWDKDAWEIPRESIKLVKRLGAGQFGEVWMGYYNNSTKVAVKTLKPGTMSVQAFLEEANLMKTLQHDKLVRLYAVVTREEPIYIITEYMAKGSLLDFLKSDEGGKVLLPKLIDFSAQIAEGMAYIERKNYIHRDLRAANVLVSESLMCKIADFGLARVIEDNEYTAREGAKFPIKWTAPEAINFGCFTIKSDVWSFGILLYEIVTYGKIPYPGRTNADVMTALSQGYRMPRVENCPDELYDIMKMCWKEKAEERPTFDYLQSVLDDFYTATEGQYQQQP

Row | Structure (SMILES) | inhibition at 10 µM [1] | IC50 [2] | inhibition at 10 µM [3] | IC50 [4] | IC50 [5] | IC50 [6] | IC50 [7] | IC50 [8] | IC50 [3] | inhibition at 10 µM [9] | IC50 [1] | IC50 [9]
1 | CN(C)Cc1ccc(/C=C/c2n[nH]c3cc(C=C4C(=O)Nc5ccccc54)ccc23)cc1 (mixture of isomers) [Example A106, (E and Z)-3-[(3-{(E)-2-[4-((dimethylamino)methyl)-phenyl]-ethenyl}-1H-indazol-6-yl)methylidene]-1,3-dihydro-2H-indol-2-one 2,2,2-trifluoroacetate] | < 50% | < 5 µM | > 50% | < 5 µM | < 5 µM | < 5 µM | < 5 µM | < 5 µM |  |  |  | 
2 | CN1CCN(c2ccc(/C=C/c3n[nH]c4cc(C=C5C(=O)Nc6ccccc65)ccc34)cn2)CC1 (mixture of isomers) [Example A108, (E and Z)-3-((3-((E)-2-(6-(4-methylpiperazin-1-yl)pyridin-3-yl)vinyl)-1H-indazol-6-yl)methylene)indolin-2-one] | < 50% | < 5 µM |  | < 5 µM |  |  |  |  | < 5 µM | < 50% |  | 
3 | O=C1Nc2ccccc2/C1=C\c1ccc2c(/C=C/c3ccccc3Cl)n[nH]c2c1 [Example A60, (E)-3-((3-((E)-2-chlorostyryl)-1H-indazol-6-yl)methylene)indolin-2-one] | < 50% | < 5 µM |  | < 5 µM |  |  |  |  | < 5 µM | < 50% |  | 
4 | O=C1Nc2ccccc2C1=Cc1ccc2c(/C=C/c3ccccn3)n[nH]c2c1 (mixture of isomers) [Example A41, (E and Z)-3-((3-((E)-2-(pyridin-2-yl)vinyl)-1H-indazol-6-yl)methylene)indolin-2-one] |  | < 5 µM |  | < 5 µM | < 5 µM | < 5 µM | < 5 µM | < 5 µM | < 5 µM |  | > 50 µM | > 50 µM
5 | O=C1Nc2ncc(Br)cc2C1=Cc1ccc2c(/C=C/c3ccncc3)n[nH]c2c1 (mixture of isomers) [Example A109, (E and Z)-5-bromo-3-((3-((E)-2-(pyridin-4-yl)vinyl)-1H-indazol-6-yl)methyl-ene)-1H-pyrrolo[2,3-b]pyridin-2(3H)-one] | < 50% | < 5 µM |  | < 5 µM |  |  |  |  | < 5 µM | < 50% |  | 
6 | O=C1Nc2ccccc2/C1=C\c1ccc2[nH]nnc2c1 [Example A1, (E)-3-((1H-benzo[d][1,2,3]triazol-5-yl)methylene)indolin-2-one] |  | < 5 µM | < 50% | < 5 µM |  |  |  |  |  |  | 5 to 50 µM | 5 to 50 µM
7 | COc1ccc2c(c1)C(=Cc1ccc3c(-c4ccc(N5CCN(C)CC5)nc4)n[nH]c3c1)C(=O)N2 (mixture of isomers) [Example A97, (E and Z)-5-methoxy-3-((3-(6-(4-methylpiperazin-1-yl)pyridin-3-yl)-1H-indazol-6-yl)methylene)indolin-2-one] |  | < 5 µM |  | < 5 µM | < 5 µM | < 5 µM | 5 to 50 µM | < 5 µM |  |  |  | 
8 | O=C1Nc2ccccc2/C1=C\c1ccc2cn[nH]c2c1 [Example A5, (E)-3-((1H-indazol-6-yl)methylene)indolin-2-one] |  |  |  | < 5 µM |  |  |  |  | < 5 µM |  | 5 to 50 µM | 5 to 50 µM

Source: US8765748B2, “Indazolyl, benzimidazolyl, benzotriazolyl substituted indolinone derivatives as kinase inhibitors useful in the treatment of cancer” (University Health Network, priority 2007, dated 2014)
